In PubChem BioAssay AID651717 (Broad Institute, 2012):

System: mESC Bmi1-luciferase reporter, firefly/renilla ratio, 24 h
Test: Bmi1-luciferase reporter activators in mESC, dose response, esBAF inhibitor project, mouse embryonic stem cells, cherry-pick (AID 651717);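 also: luciferase knocked into Bmi1 locus with EF-1a renilla as cell number control; rising ratio signals esBAF inhibition which derepresses Bmi1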

Row | SMILES | AC40 [µM]
1 | O=C(Nc1cccc(O)c1)c1ccc(Br)cc1 | 2.45
2 | O=C(c1ccncc1)N(c1ccc(N2CCOCC2)cc1)C(c1ccccc1)c1nc2ccccc2[nH]1 (stereo not given) | 1.01
3 | COc1cc(Cl)c(C)cc1NC(=O)c1cccc(OC)c1OC | 6.31
4 | O=C(CC(=O)c1ccccc1)c1ccccc1 | 2.47
5 | Oc1ccccc1/C=N/N1CCN(c2ccccn2)CC1 | 2.75
6 | ClCCn1cnc2c(SCc3ccccc3)ncnc21 | 2.74
7 | O=C(Nc1ccc2c(c1)COC2=O)c1ccc(Cl)c(Cl)c1 | 2.46
8 | O=C(/C=N/NC(=O)c1ccc(Cl)cc1Cl)c1ccccc1 | 1.41
9 | O=C(Nc1nccs1)C(=O)c1c[nH]c2ccccc12 | 0.751
10 | COc1ccc2c(c1)nc(-c1cccc(Br)c1)c(=O)n2C(c1ccccn1)c1nc2ccccc2[nH]1 (stereo not given) | 2.94
11 | O=C(Nc1ccc(Cl)c(Cl)c1)Nc1ccccc1O | 1.14
12 | c1ccc(-c2ccc(-c3ccccc3)[nH]2)cc1 | 1.44
13 | Cc1c(C(=O)N2CCCc3ccccc32)sc2nc(-c3ccccc3)cn12 | 12.5
14 | Oc1ccc(-c2cccc(-c3ccc(O)cc3)c2)cc1 | 6.78
15 | Cc1ccc(Cn2cc(-c3ccccc3)nn2)cc1 | 7.62
16 | Cc1noc(C)c1C(=O)Nc1nc(-c2cc(F)ccc2F)cs1 | 6.63
17 | O=C(Nc1ccccn1)c1ccc(Cl)c(S(=O)(=O)N2CCCCCC2)c1 | 10.4
18 | O=C(Nc1ccccc1)c1cc(C2CCCN(C(=O)CCc3ccccc3)C2)on1 (stereo not given) | 5.03
19 | CSc1ccccc1NC(=O)c1cc(C(C)C)on1 | 3.11
20 | c1ccc2c(c1)Nc1cc3ccccc3cc1O2 | 4.66
21 | CC(=O)c1ccc(NC(=O)C2CC(=O)N(Cc3ccccc3)C2)cc1 (stereo not given) | 3.25
22 | Cc1ccc(-c2csc(NC(=O)c3ccno3)n2)cc1 | 8.99
23 | CC(C)Cc1ccc(-c2ccc3nccn3c2)cc1 | 1.94

Row | SMILES | AC40 [µM]
24 | O=C(Cc1ccc(Cl)cc1)c1ccccc1 | 1.84
25 | Cc1cc(C)c2c(CN(C)Cc3ccccc3)cc(=O)oc2c1 | 4.9
26 | C=CCN(C(=O)CC(NC(C)=O)c1ccccc1)c1nc(-c2ccc(S(C)(=O)=O)cc2)cs1 (stereo not given) | 0.992
27 | CN(C)c1cccc(-c2csc(N3CCC(C(N)=O)CC3)n2)c1 | 0.362
28 | COc1ccc(-c2cc(C(=O)N3CCN(c4ccccc4)CC3)no2)cc1 | 5.94
29 | C/C(=N\OCc1ccc(C#N)cc1)c1ccc(S(=O)(=O)N(C)C)cc1 | 7.91
30 | CNc1cncc(-c2cccc(OC)c2F)n1 | 1.24
31 | O=C(Nc1ccccc1)c1cc(C2CCCN(C(=O)c3ccccc3)C2)on1 (stereo not given) | 4.54
32 | Cc1nc(-c2ccccc2)sc1-c1nnc(C2CC2)o1 | 4.24
33 | O=C(Nc1ccc(Nc2ccccc2)cc1)Nc1ccccc1Cl | 4.5
34 | O=C(Nc1ccccc1)c1cc(C2CCCCN2S(=O)(=O)c2cccs2)on1 (stereo not given) | 9.04
35 | Cc1ccc2c3c([nH]c2c1C)-c1nonc1CC3 | 4.53
36 | CO[C@@H]1CN(C)C(=O)c2ccc(NC(=O)Nc3ccc4c(c3)OCO4)cc2OC[C@H](C)NC[C@H]1C | 6.56
37 | Cc1ccc2nc(-c3cccc(S(=O)(=O)N4CCCC4)c3)cn2c1 | 23.2
38 | Cc1ccc(CNc2cccnc2)cc1 | 25.7
39 | Cc1cc(OCc2cc(C(=O)N(C)C(C)c3ccccn3)no2)cc(C)c1Cl (stereo not given) | 14.7
40 | NNC(=O)c1nc2ccccc2s1 | 4.4
41 | CC(=O)c1ccc(S(=O)(=O)N(Cc2cc3cc4c(cc3[nH]c2=O)OCCO4)CC2CCCO2)cc1 (stereo not given) | 15.2
42 | c1ccc(-c2noc(CC3CCCCC3)n2)cc1 | 4.12
43 | COc1cc(C=O)c(Br)cc1OCc1ccc(C)cc1 | 4.67
44 | CN(C)c1ccc(C=NN2CCCCCC2)cc1 | < 0.26
45 | CO[C@H]1CN(C)C(=O)c2cc(NC(=O)Nc3ccc4c(c3)OCO4)ccc2OC[C@H](C)NC[C@@H]1C | 13.2
